Test results from patent US10590140B2, “Tetrahydropyrimidodiazepine and dihydropyridodiazepine compounds for treating pain and pain related conditions” (ESTEVE PHARMACEUTICALS, S.A., priority 2016, dated 2020).

Target: human α2δ-1 subunit of Cav2.2 calcium channel (Homo sapiens (Human), UniProt P54289)
Assay: Binding assay to human α2δ-1 subunit of Cav2.2 calcium channel ([3H]-Gabapentin)
Details: binding to α2δ-1, [3H]-Gabapentin; read-out: Ki (nM) α2δ-1
Method: Binding Assay to Human α2δ-1 Subunit of Cav2.2 Calcium Channel.
NSB (non specific binding) was measured by adding 10 μM pregabalin. After 60 min incubation at 27° C., binding reaction was terminated by filtering through Multiscreen GF/C (Millipore) presoaked in 0.5% polyethyleneimine in Vacuum Manifold Station, followed by 3 washes with ice-cold filtration buffer containing 50 mM Tris-HCl, pH 7.4.
Filter plates were dried at 60° C. for 1 hour and 30 μl of scintillation cocktail were added to each well before radioactivity reading.

human α2δ-1 subunit of Cav2.2 calcium channel, sequence (P54289 25-1103): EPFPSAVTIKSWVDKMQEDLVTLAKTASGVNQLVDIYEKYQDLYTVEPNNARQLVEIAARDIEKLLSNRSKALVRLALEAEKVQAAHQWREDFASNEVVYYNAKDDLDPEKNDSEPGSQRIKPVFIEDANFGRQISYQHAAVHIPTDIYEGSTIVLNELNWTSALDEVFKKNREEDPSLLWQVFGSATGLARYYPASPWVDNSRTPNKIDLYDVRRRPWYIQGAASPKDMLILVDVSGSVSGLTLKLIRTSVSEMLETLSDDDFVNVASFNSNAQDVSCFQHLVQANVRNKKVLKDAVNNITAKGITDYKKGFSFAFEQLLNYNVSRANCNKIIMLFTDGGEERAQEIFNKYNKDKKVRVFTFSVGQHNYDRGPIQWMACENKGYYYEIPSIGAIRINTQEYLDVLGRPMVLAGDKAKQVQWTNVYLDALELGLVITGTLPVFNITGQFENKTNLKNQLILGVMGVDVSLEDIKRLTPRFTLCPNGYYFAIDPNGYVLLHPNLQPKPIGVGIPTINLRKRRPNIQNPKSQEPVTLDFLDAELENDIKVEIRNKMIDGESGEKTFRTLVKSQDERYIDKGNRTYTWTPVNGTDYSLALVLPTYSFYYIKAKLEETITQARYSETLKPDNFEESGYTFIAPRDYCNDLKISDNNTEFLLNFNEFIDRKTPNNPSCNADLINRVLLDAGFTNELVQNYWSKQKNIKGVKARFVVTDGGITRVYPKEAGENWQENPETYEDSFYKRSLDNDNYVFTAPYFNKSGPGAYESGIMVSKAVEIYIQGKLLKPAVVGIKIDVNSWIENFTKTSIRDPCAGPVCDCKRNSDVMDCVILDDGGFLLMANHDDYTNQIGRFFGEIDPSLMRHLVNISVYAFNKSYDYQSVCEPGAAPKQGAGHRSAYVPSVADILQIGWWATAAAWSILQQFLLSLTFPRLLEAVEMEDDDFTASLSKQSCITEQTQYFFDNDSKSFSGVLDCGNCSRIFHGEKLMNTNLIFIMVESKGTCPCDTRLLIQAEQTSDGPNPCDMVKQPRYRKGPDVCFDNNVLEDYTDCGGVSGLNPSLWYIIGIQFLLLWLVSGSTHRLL

Row | SMILES | Ki
1 | CSc1ncc2c(n1)N(C)CCN(c1cccc(-n3cc(CCN(C)C(=O)OC(C)(C)C)nn3)c1)C2=O [Example 43, tert-butyl methyl(2-(1-(3-(9-methyl-2-(methylthio)-5-oxo-5,7,8,9-tetrahydro-6H-pyrimido[4,5-e][1,4]diazepin-6-yl)phenyl)-1H-1,2,3-triazol-4-yl)ethyl) carbamate] | > 3000 nM
2 | CSc1ncc2c(n1)N(C)CCN(c1cccc(Cn3cc(CN(C)C(=O)OC(C)(C)C)nn3)c1)C2=O [Example 44, tert-butyl methyl((1-(3-(9-methyl-2-(methylthio)-5-oxo-5,7,8,9-tetrahydro-6H-pyrimido[4,5-e][1,4]diazepin-6-yl)benzyl)-1H-1,2,3-triazol-4-yl)methyl) carbamate] | > 3000 nM
3 | CSc1ncc2c(n1)N(C)CCN(c1cccc(-n3cc(CN(C)C(=O)OC(C)(C)C)cn3)c1)C2=O [Example 45, tert-butyl methyl((1-(3-(9-methyl-2-(methylthio)-5-oxo-5,7,8,9-tetrahydro-6H-pyrimido[4,5-e][1,4]diazepin-6-yl)phenyl)-1H-pyrazol-4-yl)methyl) carbamate] | > 3000 nM
4 | CSc1ncc2c(n1)N(C)CCN(c1cccc(-n3cnc(CN(C)C(=O)OC(C)(C)C)c3)c1)C2=O [Example 46, tert-butyl methyl((1-(3-(9-methyl-2-(methylthio)-5-oxo-5,7,8,9-tetrahydro-6H-pyrimido[4,5-e][1,4]diazepin-6-yl)phenyl)-1H-imidazol-4-yl)methyl) carbamate] | > 3000 nM
5 | CSc1ncc2c(n1)N(C)CCN(c1ccccc1OC(CCN(C)C(=O)OC(C)(C)C)c1ccccc1)C2=O (stereo not drawn) [Example 48, tert-butyl methyl(3-(2-(9-methyl-2-(methylthio)-5-oxo-5,7,8,9-tetrahydro-6H-pyrimido [4,5-e][1,4]diazepin-6-yl)phenoxy)-3-phenylpropyl) carbamate] | > 3000 nM
6 | CSc1ncc2c(n1)N(C)CCN(c1cccc(COC(CCN(C)C(=O)OC(C)(C)C)C(C)C)c1)C2=O (stereo not drawn) [Example 49, tert-butyl methyl (4-methyl-3-((3-(9-methyl-2-(methylthio)-5-oxo-5,7,8,9-tetrahydro-6H-pyrimido[4,5-e][1,4]diazepin-6-yl)benzyl)oxy)pentyl) carbamate] | > 3000 nM
7 | CSc1ncc2c(n1)N(C)CCN(c1cccc(COC(C)CCN(C)C(=O)OC(C)(C)C)c1)C2=O (stereo not drawn) [Example 50, tert-butyl methyl(3-((3-(9-methyl-2-(methylthio)-5-oxo-5,7,8,9-tetrahydro-6H-pyrimido[4,5-e][1,4]diazepin-6-yl)benzyl)oxy)butyl) carbamate] | > 3000 nM
8 | CSc1ncc2c(n1)N(C)CCN(c1cccc(OC(CCN(C)C(=O)OCC[Si](C)(C)C)c3cccs3)c1)C2=O (stereo not drawn) [Example 51, 2-(trimethyl-silyl)ethyl methyl(3-(3-(9-methyl-2-(methylthio)-5-oxo-5,7,8,9-tetrahydro-6H-pyrimido[4,5-e][1,4]diazepin-6-yl)phenoxy)-3-(thiophen-2-yl)propyl) carbamate] | > 3000 nM
9 | CCNc1cc2c(cn1)C(=O)N(c1cccc(OC(CCN(C)C(=O)OCC[Si](C)(C)C)c3cccs3)c1)CCN2C (stereo not drawn) [Example 58, 2-(trimethyl-silyl)ethyl (3-(3-(8-(ethylamino)-1-methyl-5-oxo-1,2,3,5-tetrahydro-4H-pyrido[4,3-e] [1,4]diazepin-4-yl)phenoxy)-3-(thiophen-2-yl)propyl)(methyl) carbamate] | > 3000 nM
10 | CN(CCC(Oc1cccc(N2CCN(C)c3cc(N(C)C)ncc3C2=O)c1)c1cccs1)C(=O)OCC[Si](C)(C)C (stereo not drawn) [Example 59, 2-(trimethyl-silyl)ethyl (3-(3-(8-(dimethylamino)-1-methyl-5-oxo-1,2,3,5-tetrahydro-4H-pyrido[4,3-e] [1,4]diazepin-4-yl)phenoxy)-3-(thiophen-2-yl)propyl)(methyl) carbamate] | > 3000 nM
11 | CCNc1cc2c(cn1)C(=O)N(c1cccc(COC(CCN(C)C(=O)OCC[Si](C)(C)C)c3cccs3)c1)CCN2C (stereo not drawn) [Example 60, 2-(trimethyl-silyl)ethyl (3-((3-(8-(ethylamino)-1-methyl-5-oxo-1,2,3,5-tetrahydro-4H-pyrido[4,3-e] [1,4]diazepin-4-yl)benzyl)oxy)-3-(thiophen-2-yl)propyl) (methyl) carbamate] | > 3000 nM

The remaining lines, values ahead:

Row | Ki | SMILES
12 | > 3000 nM | CSc1ncc2c(n1)N(C)CCN(c1cccc(OC(CCN(C)C(=O)OC(C)(C)C)c3ccccn3)c1)C2=O (stereo not drawn) [Example 52, tert-butyl methyl(3-(3-(9-methyl-2-(methylthio)-5-oxo-5,7,8,9-tetrahydro-6H-pyrimido[4,5-e][1,4]diazepin-6-yl)phenoxy)-3-(pyridin-2-yl)propyl) carbamate]
13 | > 3000 nM | CSc1ncc2c(n1)N(C)CCN(c1cccc(OC(CCN(C)C(=O)OC(C)(C)C)c3cccnc3)c1)C2=O (stereo not drawn) [Example 53, tert-butyl methyl(3-(3-(9-methyl-2-(methylthio)-5-oxo-5,7,8,9-tetrahydro-6H-pyrimido[4,5-e][1,4]diazepin-6-yl)phenoxy)-3-(pyridin-3-yl)propyl) carbamate]
14 | 100 to 500 nM | CCNc1cc2c(cn1)C(=O)N(c1cccc(-c3nnc(C)o3)c1)CCN2C [Example 54, 8-(ethylamino)-1-methyl-4-(3-(5-methyl-1,3,4-oxadiazol-2-yl)phenyl)-1,2,3,4-tetrahydro-5H-pyrido[4,3-e][1,4]diazepin-5-one]
15 | 500 to 3000 nM | CCNc1cc2c(cn1)C(=O)N(c1cccc(-c3nnc(C)n3CC)c1)CCN2C [Example 55, 4-(3-(4-ethyl-5-methyl-4H-1,2,4-triazol-3-yl)phenyl)-8-(ethylamino)-1-methyl-1,2,3,4-tetrahydro-5H-pyrido[4,3-e][1,4]diazepin-5-one]
16 | > 3000 nM | CSc1ncc2c(n1)N(C)CCN(Cc1cccc(OC(CN(C)C(=O)OC(C)(C)C)c3ccccc3)c1)C2=O (stereo not drawn) [Example 62, tert-Butyl methyl(2-(3-((9-methyl-2-(methylthio)-5-oxo-5,7,8,9-tetrahydro-6H-pyrimido[4,5-e][1,4]diazepin-6-yl)methyl)phenoxy)-2-phenylethyl) carbamate]
17 | > 3000 nM | CSc1ncc2c(n1)N(C)CCN(Cc1ccc(OC(CN(C)C(=O)OC(C)(C)C)c3ccccc3)cc1)C2=O (stereo not drawn) [Example 63, tert-butyl methyl(2-(4-((9-methyl-2-(methylthio)-5-oxo-5,7,8,9-tetrahydro-6H-pyrimido[4,5-e][1,4]diazepin-6-yl)methyl)phenoxy)-2-phenylethyl)carbamate]
18 | > 3000 nM | CSc1ncc2c(n1)N(C)CCN(Cc1ccc(CN(C)C(=O)OC(C)(C)C)cc1)C2=O [Example 64, tert-butyl methyl(4-((9-methyl-2-(methylthio)-5-oxo-5,7,8,9-tetrahydro-6H-pyrimido[4,5-e][1,4]diazepin-6-yl)methyl)benzyl) carbamate]
19 | > 3000 nM | CCNc1ncc2c(n1)N(C)CCN(c1cccc(CO[C@H](CCN(C)C(=O)OC(C)(C)C)c3ccccc3)c1)C2 [Example 65, tert-Butyl (R)-(3-((3-(2-(ethylamino)-9-methyl-5,7,8,9-tetrahydro-6H-pyrimido[4,5-e][1,4]diazepin-6-yl)benzyl)oxy)-3-phenylpropyl)(methyl)carbamate]
20 | 500 to 3000 nM | CCNc1ncc2c(n1)N(C)CCN(c1cccc(-c3nnc(C)o3)c1)C2 [Example 66, N-ethyl-9-methyl-6-(3-(5-methyl-1,3,4-oxadiazol-2-yl)phenyl)-6,7,8,9-tetrahydro-5H-pyrimido[4,5-e][1,4]diazepin-2-amine]
21 | > 3000 nM | CCNc1ncc2c(n1)N(C)CCN(Cc1cccc(OC)c1)C2 [Example 67, N-ethyl-6-(3-methoxybenzyl)-9-methyl-6,7,8,9-tetrahydro-5H-pyrimido[4,5-e][1,4]diazepin-2-amine]
22 | > 3000 nM | CCNc1ncc2c(n1)N(C)CCN(Cc1ccc(OC)cc1)C2 [Example 68, N-ethyl-6-(4-methoxybenzyl)-9-methyl-6,7,8,9-tetrahydro-5H-pyrimido[4,5-e][1,4]diazepin-2-amine]
23 | > 3000 nM | CCNc1ncc2c(n1)N(C)CCN(c1cccc(OC(CCN(C)C(=O)OC(C)(C)C)c3ccccc3)c1)C2=O (stereo not drawn) [Example 69, tert-Butyl (3-(3-(2-(ethylamino)-9-methyl-5-oxo-5,7,8,9-tetrahydro-6H-pyrimido[4,5-e][1,4]diazepin-6-yl)phenoxy)-3-phenylpropyl)(methyl)carbamate]
24 | > 3000 nM | CCNc1ncc2c(n1)N(C)CCN(c1cccc(O[C@H](CCN(C)C(=O)OC(C)(C)C)c3ccccc3)c1)C2=O [Example 70, tert-butyl (R)-(3-(3-(2-(ethylamino)-9-methyl-5-oxo-5,7,8,9-tetrahydro-6H-pyrimido[4,5-e][1,4]diazepin-6-yl)phenoxy)-3-phenylpropyl)(methyl) carbamate]
25 | > 3000 nM | CCNc1ncc2c(n1)N(C)CCN(c1cccc(O[C@@H](CCN(C)C(=O)OC(C)(C)C)c3ccccc3)c1)C2=O [Example 71, tert-butyl (S)-(3-(3-(2-(ethylamino)-9-methyl-5-oxo-5,7,8,9-tetrahydro-6H-pyrimido[4,5-e][1,4]diazepin-6-yl)phenoxy)-3-phenylpropyl)(methyl) carbamate]
26 | > 3000 nM | CCNc1ncc2c(n1)N(C)CCN(c1cccc(OC(CN(C)C(=O)OC(C)(C)C)c3ccccc3)c1)C2=O (stereo not drawn) [Example 72, tert-butyl (2-(3-(2-(ethylamino)-9-methyl-5-oxo-5,7,8,9-tetrahydro-6H-pyrimido[4,5-e][1,4]diazepin-6-yl)phenoxy)-2-phenylethyl)(methyl) carbamate]
27 | > 3000 nM | CCNc1ncc2c(n1)N(C)CCN(c1cccc(OC(CNC(=O)OC(C)(C)C)c3ccccc3)c1)C2=O (stereo not drawn) [Example 73, tert-butyl (2-(3-(2-(ethylamino)-9-methyl-5-oxo-5,7,8,9-tetrahydro-6H-pyrimido[4,5-e][1,4]diazepin-6-yl)phenoxy)-2-phenylethyl)carbamate]
